Square brackets hold non-standard residues; d marks the D form. Peptide text beside a SMILES is read from it. βAla = NCCC(=O)O
Assays:
[1] = target: T1, human calcium-sensing receptor (CaSR) (Homo sapiens, UniProt P41180); test: In vitro cell assay in HEK-293 expressing the human calcium-sensing receptor (IP1 production); assay type: cell-based; details: for EC50: Table 5, IP1 production in HEK293 cells expressing human CaSR, eight concentrations in duplicate, read-out: EC50 in CaSR in vitro assay
T1 construct: expressed in transfected cells; host or cells: HEK 293T cells, transiently transfected (lipofectamine 2000); in some cases HEK293 cells stably transfected
T1 sequence (P41180 20-1078): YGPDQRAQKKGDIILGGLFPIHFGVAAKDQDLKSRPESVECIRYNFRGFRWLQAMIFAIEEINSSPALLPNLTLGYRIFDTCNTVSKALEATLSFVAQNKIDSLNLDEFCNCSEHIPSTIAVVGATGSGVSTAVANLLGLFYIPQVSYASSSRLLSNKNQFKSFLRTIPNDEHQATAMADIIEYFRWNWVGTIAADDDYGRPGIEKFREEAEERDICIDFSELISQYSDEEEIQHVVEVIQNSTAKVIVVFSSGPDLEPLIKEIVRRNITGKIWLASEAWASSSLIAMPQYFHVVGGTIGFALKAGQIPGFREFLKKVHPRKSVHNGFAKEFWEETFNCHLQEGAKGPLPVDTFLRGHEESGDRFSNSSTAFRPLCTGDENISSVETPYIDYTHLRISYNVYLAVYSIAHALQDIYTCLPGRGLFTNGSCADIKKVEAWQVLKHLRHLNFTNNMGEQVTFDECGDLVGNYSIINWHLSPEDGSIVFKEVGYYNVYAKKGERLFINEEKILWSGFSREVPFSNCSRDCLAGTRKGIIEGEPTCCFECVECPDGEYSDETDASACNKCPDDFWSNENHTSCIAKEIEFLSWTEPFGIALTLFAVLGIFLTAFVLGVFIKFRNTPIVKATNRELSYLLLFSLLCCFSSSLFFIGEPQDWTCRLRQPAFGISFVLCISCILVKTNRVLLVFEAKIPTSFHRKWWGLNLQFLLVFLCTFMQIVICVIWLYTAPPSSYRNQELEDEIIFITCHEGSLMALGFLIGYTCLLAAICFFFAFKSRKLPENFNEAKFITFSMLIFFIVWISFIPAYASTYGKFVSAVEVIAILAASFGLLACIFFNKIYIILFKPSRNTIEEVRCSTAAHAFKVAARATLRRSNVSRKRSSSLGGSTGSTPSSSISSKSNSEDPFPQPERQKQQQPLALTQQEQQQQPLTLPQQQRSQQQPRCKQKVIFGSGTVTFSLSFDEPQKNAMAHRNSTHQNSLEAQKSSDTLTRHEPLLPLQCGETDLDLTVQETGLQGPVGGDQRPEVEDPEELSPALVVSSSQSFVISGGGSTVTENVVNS
Description: The activity of a variety of peptides and conjugates was tested against the human CaSR. These studies were conducted by measuring IP1 production in HEK293 cells that express the human CaSR. Each peptide was tested in eight different concentrations, in duplicates, to establish a dose response curve. Curve fitting was performed using GraphPad Prism. In Table 5, and throughout the specification, residues provided in capital letters are L-amino acids, while lower case letters indicate D-amino acids. “Ac” indicates an acetyl capping group, “NH2” indicates an amide capping group, “Ac-bAla” is an acetylated beta-alanine, “GSH” indicates reduced glutathione, “GS” indicates oxidized glutathione, “PEG” refers to polyethylene glycol, “PEG2” and “PEGS” refer to polyethylene glycol moieties of 2 kDa and 5 kDa, respectively, and “Mpa” refers to mercaptopropionic acid.
The day after, these cells were transfected with human CaSR receptor using lipofectamine 2000 transfection reagent 24 hrs post transfection, cells were seeded in 384 well plates at 8,000 cells/well. […] In some cases, EC50 values were determined by measuring inositol monophosphate production in the HEK293 cells, stably transfected with the human calcium-sensing receptor (see Table 1).
Cells were incubated with compounds at various concentrations (1 mM or 300 μM as the highest and further ½ log serial dilutions) at 37° C. for 1.5 hrs before reaction termination. […] In brief, incubation with the compound was terminated by sequentially adding D2 labeled-IP1 and cryptate-labeled anti-IP1 in lysis buffer and further incubating at room temperature for 60 minutes. […] Non-transfected 293 cells were used as negative control.
IP1 concentrations were calculated from standard curves (generated with Graph Pad Prism ver. 4) using known concentrations of IP1 standards.

[2] = tested on: plasma PTH; test: In vivo PTH lowering after IV bolus in isoflurane-anesthetized normal Sprague Dawley rats; set-up: species or system rat; details: for 0.5 mg/kg IV bolus % PTH AUC of saline control: normal rats, AUC 1-4 h
Summary of the method: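 Peptides were given as a 0.5 mg/kg IV bolus to normal Sprague Dawley rats kept under isoflurane throughout, with saline bolus controls.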

| Compound | EC50 [1] | other results |
| --- | --- | --- |
| CC(=O)N[C@H](CS)C(=O)N[C@H](CCCNC(=N)N)C(=O)N[C@H](CCCNC(=N)N)C(=O)N[C@H](CCCNC(=N)N)C(=O)N[C@H](CCCNC(=N)N)C(=O)N[C@H](CCCNC(=N)N)C(=O)N[C@H](CCCNC(=N)N)C(=O)N[C@H](CCCNC(=N)N)C(N)=O [SEQ ID NO: 7, Ac-crrrrrrr-NH2] (Ac-[dC][dR][dR][dR][dR][dR][dR][dR]-NH2) | 0.6 µM | – |
| CC(=O)N[C@H](C)C(=O)N[C@H](CCCNC(=N)N)C(=O)N[C@H](CCCNC(=N)N)C(=O)N[C@H](CCCNC(=N)N)C(=O)N[C@H](C)C(=O)N[C@H](CCCNC(=N)N)C(N)=O [SEQ ID NO: 29, Ac-arrrar-NH2] (Ac-[dA][dR][dR][dR][dA][dR]-NH2) | > 1000 µM | potency to activate the human CaSR in vitro ([1]; HEK-293 cell assay): dramatically reduced the ability of the compound to activate the CaSR; PTH-lowering activity in normal rats ([2]; 9 mg/kg IV bolus, FIG. 2B): did not reduce PTH concentration |
| CC(=O)NCCC(=O)N[C@H](CS)C(=O)N[C@H](CCCNC(=N)N)C(=O)N[C@H](CCCNC(=N)N)C(=O)N[C@H](CCCNC(=N)N)C(=O)N[C@H](CCCNC(=N)N)C(=O)N[C@H](CCCNC(=N)N)C(=O)N[C@H](CCCNC(=N)N)C(N)=O [SEQ ID NO: 30, Ac-bAla-crrrrrr-NH2] (Ac-[βAla][dC][dR][dR][dR][dR][dR][dR]-NH2) | 1 µM | 0.5 mg/kg IV bolus % PTH AUC of saline control ([2]; Table 3): 0% |
| CC(=O)N[C@H](CCS)C(=O)N[C@H](CCCNC(=N)N)C(=O)N[C@H](CCCNC(=N)N)C(=O)N[C@H](CCCNC(=N)N)C(=O)N[C@H](CCCNC(=N)N)C(=O)N[C@H](CCCNC(=N)N)C(=O)N[C@H](CCCNC(=N)N)C(N)=O [SEQ ID NO: 32, Ac-dHcy-rrrrrr-NH2] | 2 µM | 0.5 mg/kg IV bolus % PTH AUC of saline control ([2]; Table 3): 21% |
| CC(=O)N[C@@H](CS)C(=O)N[C@H](C)C(=O)N[C@@H](CCCNC(=N)N)C(=O)N[C@H](CCCNC(=N)N)C(=O)N[C@@H](CCCNC(=N)N)C(=O)N[C@H](C)C(=O)N[C@@H](CCCNC(=N)N)C(N)=O [SEQ ID NO: 44, Ac-CaRrRaR-NH2] | – | fold decrease in potency relative to Ac-carrrar-NH2 (SEQ ID NO:26) ([1]; human CaSR, HEK293): < 4 fold |
| CC(=O)N[C@@H](CS)C(=O)N[C@@H](Cc1ccc(O)cc1)C(=O)NCC(=O)N[C@@H](CCCNC(=N)N)C(=O)N[C@@H](CCCCN)C(=O)N[C@@H](CCCCN)C(=O)N[C@@H](CCCNC(=N)N)C(=O)N[C@@H](CCCNC(=N)N)C(=O)N[C@@H](CCC(N)=O)C(=O)N[C@@H](CCCNC(=N)N)C(=O)N[C@@H](CCCNC(=N)N)C(=O)N[C@@H](CCCNC(=N)N)C(N)=O [SEQ ID NO: 47] | 4.5 µM | – |
| CC(=O)N[C@@H](Cc1ccc(O)cc1)C(=O)NCC(=O)N[C@@H](CCCNC(=N)N)C(=O)N[C@@H](CCCCN)C(=O)N[C@@H](CCCCN)C(=O)N[C@@H](CCCNC(=N)N)C(=O)N[C@@H](CCCNC(=N)N)C(=O)N[C@@H](CCC(N)=O)C(=O)N[C@@H](CCCNC(=N)N)C(=O)N[C@@H](CCCNC(=N)N)C(=O)N[C@@H](CCCNC(=N)N)C(N)=O [SEQ ID NO: 48] | 16 µM | – |
| CC(=O)N[C@H](CS)C(=O)N[C@H](Cc1ccc(O)cc1)C(=O)NCC(=O)N[C@H](CCCNC(=N)N)C(=O)N[C@H](CCCCN)C(=O)N[C@H](CCCCN)C(=O)N[C@H](CCCNC(=N)N)C(=O)N[C@H](CCCNC(=N)N)C(=O)N[C@H](CCC(N)=O)C(=O)N[C@H](CCCNC(=N)N)C(=O)N[C@H](CCCNC(=N)N)C(=O)N[C@H](CCCNC(=N)N)C(N)=O [SEQ ID NO: 50, Ac-cygrkkrrqrrr-NH2] | 2 µM | – |
| CC(=O)N[C@H](CSSCCC(=O)O)C(=O)N[C@H](C)C(=O)N[C@H](CCCNC(=N)N)C(=O)N[C@H](CCCNC(=N)N)C(=O)N[C@H](CCCNC(=N)N)C(=O)N[C@H](C)C(=O)N[C@H](CCCNC(=N)N)C(N)=O [SEQ ID NO: 56, Ac-c(Mpa)arrrar-NH2] | 21 µM | 0.5 mg/kg IV bolus % PTH AUC of saline control ([2]; Table 8): 25% |
| CC(=O)N[C@H](CS)C(=O)N[C@@H](C(=O)N[C@H](CCCNC(=N)N)C(=O)N[C@H](CCCNC(=N)N)C(=O)N[C@H](CCCNC(=N)N)C(=O)N[C@@H](C(=O)N[C@H](CCCNC(=N)N)C(N)=O)C(C)C)C(C)C [SEQ ID NO: 65, Ac-cvrrrvr-NH2] (Ac-[dC][dV][dR][dR][dR][dV][dR]-NH2) | 35 µM | – |
| CC(=O)N[C@H](CS)C(=O)N[C@H](CCC(=O)O)C(=O)N[C@H](CCCNC(=N)N)C(=O)N[C@H](CCCNC(=N)N)C(=O)N[C@H](CCCNC(=N)N)C(=O)N[C@H](C)C(=O)N[C@H](CCCNC(=N)N)C(N)=O [SEQ ID NO: 69, Ac-cerrrar-NH2] (Ac-[dC][dE][dR][dR][dR][dA][dR]-NH2) | 31 µM | 0.5 mg/kg IV bolus % PTH AUC of saline control ([2]; Table 6): 103% |
| CC(=O)N[C@H](CS)C(=O)N[C@H](C)C(=O)N[C@H](CCCNC(=N)N)C(=O)N[C@H](CCCNC(=N)N)C(=O)N[C@H](CCCNC(=N)N)C(=O)N[C@H](C)C(=O)N[C@H](CCCNC(=N)N)C(=O)O [SEQ ID NO: 74, Ac-carrrar-OH] | 31 µM | – |
| CC(=O)N[C@H](CS)C(=O)N[C@H](C)C(=O)N[C@H](C)C(=O)N[C@H](CCCNC(=N)N)C(=O)N[C@H](CCCNC(=N)N)C(=O)N[C@H](CCCNC(=N)N)C(=O)N[C@H](CCCNC(=N)N)C(=O)N[C@H](CCCNC(=N)N)C(=O)N[C@H](CCCNC(=N)N)C(N)=O [SEQ ID NO: 76, Ac-caarrrrrr-NH2] (Ac-[dC][dA][dA][dR][dR][dR][dR][dR][dR]-NH2) | 4.5 µM | – |
| CC(=O)N[C@H](CS)C(=O)N[C@H](C)C(=O)N[C@H](CCCNC(=N)N)C(=O)N[C@H](C)C(=O)N[C@H](CCCNC(=N)N)C(=O)N[C@H](C)C(=O)N[C@H](CCCNC(=N)N)C(=O)N[C@H](C)C(=O)N[C@H](CCCNC(=N)N)C(N)=O [SEQ ID NO: 78, Ac-carararar-NH2] (Ac-[dC][dA][dR][dA][dR][dA][dR][dA][dR]-NH2) | 5.3 µM | – |
| CC(=O)N[C@H](CS)C(=O)N[C@H](C)C(=O)N[C@H](CCCNC(=N)N)C(=O)N[C@H](CCCNC(=N)N)C(=O)N[C@H](CCCNC(=N)N)C(=O)N[C@H](C)C(=O)N[C@H](CCCNC(=N)N)C(=O)N[C@H](C)C(=O)N[C@H](CCCNC(=N)N)C(N)=O [SEQ ID NO: 79, Ac-carrrarar-NH2] (Ac-[dC][dA][dR][dR][dR][dA][dR][dA][dR]-NH2) | 13 µM | – |
| N=C(N)NCCC[C@@H](NC(=O)[C@@H](CCCNC(=N)N)NC(=O)[C@@H](CCCNC(=N)N)NC(=O)[C@@H](CCCNC(=N)N)NC(=O)[C@@H](CCCNC(=N)N)NC(=O)[C@@H](CCCNC(=N)N)NC(=O)[C@H](N)CS)C(N)=O [SEQ ID NO: 80, crrrrrr-NH2] | 1.1 µM | – |
| Ac-c(PEG2-C)arrrar-NH2 (XXXXXXX; D-residues) [SEQ ID NO: 57] | 2.3 µM | – |
| Ac-c(PEG2-C)rrrrrr-NH2 (XXXXXXX; D-residues) [SEQ ID NO: 59] | 0.02 µM | – |

Source: patent US10280198B2, “Therapeutic agents for reducing parathyroid hormone levels” (KAI PHARMACEUTICALS, INC., priority 2009, dated 2019)
